Measurements taken from paper PMC7822874, “Chemoprotective antimalarials identified through quantitative high-throughput screening of Plasmodium blood and liver stage parasites” (Scientific Reports, 2021).
Several values for one entry are separate records, joined by “and”; a condition that tells them apart may be missing. Identical values can stand only once. Like-named read-outs stand apart in the source and are kept apart here.

How the values were obtained:
[1] = system: P. falciparum Dd2 (clone B2) asexual blood stage parasites; assay: P. falciparum Dd2 asexual blood stage SYBR Green-I 72 h proliferation assay (qHTS); type: cell-based, Plasmodium falciparum; settings: for Pf ABS Log AC50 (M): averaged P. falciparum asexual blood stage potency, log10 of AC50 in M
[2] = system: P. berghei-ANKA-GFP-LucCON liver stage parasites in HepG2-A16-CD81EGFP cells; assay: P. berghei liver stage Pb-Luc assay, Method 1 (UCSD, 1536-well); type: cell-based, Plasmodium berghei; settings: for Average P. berghei 3 µM response( %) / Average P. berghei 1 µM response (%): P. berghei liver stage, averaged response (percent); for Average P. berghei 1 µM response (%): the header list (r8) defines it as the 1 µM dose; for activity at 1 µM / activity at 3 µM / AC50: Plasmodium berghei; for activity at 1 µM / activity at 3 µM: 48 h, average of 2 wells, 1536-well plate; for activity at 1 µM: nominal 1 uM (10 mM stock), […] for 15 mM, 1.2 uM for 12 mM, 2 uM for 20 mM stock; for activity at 3 µM: nominal 3 uM (10 mM stock), 4.5 uM for 15 mM, 3.6 uM for 12 mM, 6 uM for 20 mM stock
HepG2-A16-CD81EGFP cells = settings: for Average HepG2 3 µM response( %): averaged response (percent)
[3] = system: luciferase-expressing P. berghei liver stage parasites in HepG2 cells; assay: Inhibition of liver-stage development assay (ILSDA), Method 2 (WRAIR, 96-well); type: cell-based, Plasmodium berghei; settings: P. berghei liver stage, Method 2, dose response
[4] = system: Plasmodium falciparum Dd2 asexual blood stage parasites; assay: microbe, parasite or virus in culture; parameters: species or system Plasmodium falciparum Dd2 in human erythrocytes; single determination (one 11-point concentration-response curve); settings: Plasmodium falciparum, DD2, Erythrocyte, 72 h; read-out: AC50
[5] = system: T1, Plasmodium falciparum Dd2-attB (parental line), asexual blood stages; assay: microbe, parasite or virus in culture; parameters: replicate k of 3 (each line is one of three independent assays; the three lines of one compound and parasite line follow each other); settings: n = 1; for Individual replicates / Log AC50 (M): 72 h
T1 construct: Dd2-attB, the isogenic parental line
Method in brief: (§1)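 We compare activity in parasites carrying fumarate-using yeast DHODH with that in the parental line; mETC or parasite DHODH inhibitors are bypassed by this enzyme. Data come from three independent assays, analysed by two-sided Student's t-tests.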

[6] = system: T2, Plasmodium falciparum Dd2-attB-ScDHODH (transgenic line expressing yeast DHODH), asexual blood stages; assay: organism not typed; parameters: replicate k of 3 (each line is one of three independent assays; the three lines of one compound and parasite line follow each other); settings: 72 h, n = 1
T2 construct: Dd2-attB-ScDHODH, the transgenic line that expresses yeast DHODH
Method in brief: as §1

in vitro = settings: human, HepG2-A16-CD81EGFP cells, uninfected
[7] = HepG2, the header list (r10) describes it as the 1 µM dose
[8] = repeat 1, read-out: Pb-Luc signal, 1 uM, repeat 1
[9] = repeat 2, read-out: Pb-Luc signal, 1 uM, repeat 2
[10] = repeat 3, read-out: Pb-Luc signal, 1 uM, repeat 3
[11] = repeat 1, read-out: Pb-Luc signal, 3 uM, repeat 1
[12] = repeat 2, read-out: Pb-Luc signal, 3 uM, repeat 2
[13] = repeat 3, read-out: Pb-Luc signal, 3 uM, repeat 3
[14] = Method 1, Hill fit, 50% of maximum activity response, read-out: AC50
[15] = Method 1, log10 of molar AC50 from Hill fit, read-out: Log AC50 (converted)

SMILES	Pf ABS Log AC50 (M) [1] [M]	Average P. berghei 3 µM response( %) [2] [%]	Average P. berghei 1 µM response (%) [2] [%]	Average HepG2 3 µM response( %) (HepG2-A16-CD81EGFP cells; HepG2, 3 µM dose) [%]	Average HepG2 3 µM response( %) (HepG2-A16-CD81EGFP cells; [7]) [%]	other results
Cc1ccc(-n2c(C)cc(C(=O)OCC(=O)N(C)C3CCS(=O)(=O)C3)c2C)cc1 (stereo not shown) [MLS000098265]	-5.487	106	136	101	101	
Cc1ccc(NC(=O)CCS(=O)(=O)c2cc(Br)cc3c2N(C(=O)C2CC2)CC3)cc1 [NCGC00107230]	-5.625	118	117	102	99	
Cc1ccc(/C=N/NC(=O)c2cc3ccccc3cc2O)o1 [MLS001219838]	-5.275	6.47	18	98	98	
Br.CCOC(=O)c1c(CSC(=N)N)n(-c2ccc(Br)cc2)c2cc(Br)c(OC(C)=O)cc12 [MLS000595146]	-5.712	73	88	102	101	
O=C(Nc1ccc(Cl)cc1)Nc1ccc2c(c1)N1CCN=C1S2 [MLS000078440]	-5.612	69		94	98	
Clc1ccc(-c2nnc(N3CCCC3)nn2)cc1 [MLS000038815]	-5.512	153	160	104	104	
COc1ccc(-c2noc(-c3cccn3CC(=O)Nc3ccccc3)n2)cc1F [NCGC00445500]	-5.625	183	170	104	101	
O=C(c1ccc([N+](=O)[O-])o1)N1CCN(c2nc3c(F)cc(F)cc3s2)CC1 [MLS001234228]	-5.462	65	77	107	103	
c1ccc2c(NCCc3c[nH]c4ccccc34)c3ccccc3nc2c1 [MLS001195935]	-5.937	47		82	91	
COc1ccc(CCN2CCC(Nc3nc4ccccc4n3Cc3ccc(F)cc3)CC2)cc1 [NCGC00016913]	-5.658	43	54	100	99	
CN(C)c1cc[n+](CC(=O)c2cccs2)cc1 [MLS001207444]	-5.387	62	89	101	101	
Cc1ccccc1NC(=O)Nc1ccc2nc(N3CCN(C)CC3)cc(C)c2c1 [NCGC00126513]	-5.825	104	110	106	104	
COc1cc2c(cc1Oc1cccc(N(C)C)c1)NC(=O)C21CCN(c2cnccn2)CC1 [NCGC00416778]	-5.825	43	96	89	98	
CCCN1C(CC(C)C)=N[S+](=O)([O-])c2cc(NC(=O)c3ccco3)ccc21 [NCGC00473219-01]						Max Resp (signal direction of the dose response) ([2]; Method 1, Decrease = decreasing P. berghei viability with dose, Increase = increasing signal, Inactive = no dose response): Decrease; activity at 1 µM [2, 8]: 32.3%; activity at 1 µM [2, 9]: 25.4%; activity at 1 µM [2, 10]: 19.9%; activity at 3 µM [2, 11]: 11.9%; activity at 3 µM [2, 12]: 8.91%; activity at 3 µM [2, 13]: 10.7%; AC50 [2, 14]: 631 nM; AC50 [2, 15]: 631 nM; Activity direction (Decrease / Inactive) [3]: Inactive; AC50 [4]: 7500 nM; HepG2 viability signal, 1 uM, repeat 2 (HepG2-A16-CD81EGFP cells): 101.29%; HepG2 viability signal, 3 uM, repeat 2 (HepG2-A16-CD81EGFP cells): 102.75%; Individual replicates / Log AC50 (M) [5]: -6.1986 Log AC50 (M) and -5.7986 Log AC50 (M) and -6.3486 Log AC50 (M); Individual replicates / Log AC50 (M) [6]: -5.5986 Log AC50 (M) and -5.4986 Log AC50 (M) and -5.2486 Log AC50 (M); viability at 48 h, 1 µM (in vitro): 103%; viability at 48 h, 3 µM (in vitro): 105%
COC(=O)[C@H]1[C@H]2C[C@@H]3c4[nH]c5cc(OC)ccc5c4CCN3C[C@H]2C[C@@H](OC(=O)/C=C/c2cc(OC)c(OC)c(OC)c2)[C@@H]1OC [MLS002153878]	-5.162	84	102	105	105	
C[C@H]1[C@@H](O)O[C@@H]2O[C@@]3(C)CC[C@H]4[C@H](C)CC[C@@H]1[C@@]24OO3 [dihydroartemisinin, reference compound]						AC50 ([1]; Plasmodium falciparum, DD2, 72 h, SYBR Green 72 h, read-out: AC50, Dd2 ABS parasites): 2 nM
Oc1ccc(CN2CC(CNc3ccccc3)C3(C2)CN(c2ccccc2)C3)cc1 (stereo not shown) [NCGC00416032-01]						activity at 1 µM [2, 8]: 52.9%; activity at 1 µM [2, 9]: 59%; activity at 1 µM [2, 10]: 77.5%; activity at 3 µM [2, 11]: 5.3%; activity at 3 µM [2, 12]: 6.04%; activity at 3 µM [2, 13]: 8.95%; AC50 [2, 14]: 1410 nM; AC50 [2, 15]: 1410 nM; Activity direction (Decrease / Inactive) [3]: Inactive; AC50 [4]: 611 nM; HepG2 viability signal, 1 uM, repeat 2 (HepG2-A16-CD81EGFP cells; nominal 1 uM (10 mM stock), […] for 15 mM, 1.2 uM for 12 mM, 2 uM for 20 mM stock, average of 2 wells, repeat 2): 101.59%; HepG2 viability signal, 3 uM, repeat 2 (HepG2-A16-CD81EGFP cells; nominal 3 uM (10 mM stock), 4.5 uM for 15 mM, 3.6 uM for 12 mM, 6 uM for 20 mM stock, average of 2 wells, repeat 2): 99.28%; Individual replicates / Log AC50 (M) [5]: -5.9373 Log AC50 (M) and -6.1873 Log AC50 (M); AC50 ([5]; Plasmodium falciparum, DD2, 72 h, read-out: Individual replicates / Log AC50 (converted)): 818 nM; Individual replicates / Log AC50 (M) [6]: -5.6373 Log AC50 (M) and -5.9873 Log AC50 (M); viability at 48 h, 1 µM (in vitro): 106%; viability at 48 h, 3 µM (in vitro): 106%
